Source: patent publication US20140286906A1, “USE OF IGF-1 IN THE MODULATION OF TREG CELL ACTIVITY AND THE TREATMENT AND PREVENTION OF AUTOIMMUNE DISORDERS OR DISEASES” (priority 2011, published 2014)

Key:
[1] = mouse, in vivo
[2] = test system: CD4+ cells isolated from mesenteric lymph nodes; experiment: intraperitoneal injection, RT-PCR of CD4+ cells from mesenteric lymph nodes; assay type: in vivo, mice; details: five intraperitoneal daily injections (5 μg); RT-PCR after the fifth day; n=30, P=0.0241
[3] = test system: CD4+CD25- cells (T conventional cells); experiment: Annexin V / living dye apoptosis flow cytometry, CD4+CD25- cells; assay type: cell-based, murine
Description: The effects of IGF-1 on apoptosis can be measured by flow cytometry. By using a combination of a living dye and Annexin V staining it is possible to determine four different cell populations which correspond to non-apoptotic, necrotic, early and late apoptosis.
(§1) Initially, and in order to characterize the in vitro effects of IGF-1 on the different populations of the […] immune system, murine splenic CD4 positive cells were sorted by FACS based on the expression of CD25. This allows for the separation and enrichment of conventional T cells (CD25 negative) and regulatory T cells (CD25 positive). […] To exclude the possibility that the observed expansion was due to the anti-apoptotic properties of IGF-1, the cells in culture were stained with AnnexinV (a marker of apoptosis) and a vital dye, and then analyzed by flow cytometry.

[4] = mouse, in vivo; remark: listed apart in the source
Description: The inventors first tested the ability of rhIGF-1 to alter the balance of Treg/CD4 positive cells after five intraperitoneal daily injections (5 μg, FIG. 11).

[5] = test system: CD25 negative subset (conventional T cells); experiment: in vitro expansion of FACS-sorted splenic CD4+CD25- cells; assay type: cell-based, murine; details: TCR stimulation with anti-CD3 and anti-CD28 antibodies
Description: as §1

STZ induced diabetes = experiment: streptozotocin (STZ) induced autoimmune diabetes, systemic rhIGF-1 delivery; assay type: in vivo, mice
Description: Regarding the functional assay for diabetes a protocol that measures the clearance of a standardized glucose load from the body after intraperitoneal injection was used (intraperitoneal glucose tolerance test, see Heikkinen et al. (2007)).
Beta-cells sense glucose levels and release insulin to maintain physiologic glucose levels within a relatively narrow range. Destruction of beta-cells by the immune system is correlated with the inability to control glucose levels (measured by the glucose tolerance test). Another way to assess whether IGF-1 stimulates proliferation and/or recruitment of regulatory T cells to the damaged tissues is by determining the number of FOXP3 expressing cells per unit area in the affected tissues by immunohistochemistry.
Shortly, single cell suspensions are prepared from the […] and spinal cord. The resulting cells are stained with anti-CD4 antibodies and separated using fluorescent-activated cell sorting. RNA is then extracted and purified and serves as a template for a quantitative RT-PCR reaction with Taqman probes. Finally, the relative amount of each mRNA compared to a house-keeping gene (Hprt) is determined.
An accepted model of experimental autoimmune diabetes in mice is the induction of diabetes by multiple injections of a low dose of streptozotocin (STZ). STZ causes diabetes by direct beta cell cytotoxicity as well as by initiation of T cell-mediated autoimmune attack of β-cells (O'Brian et al., 1996). Using this model the inventors examined if systemic delivery of rhIGF-1 could prevent autoimmune diabetes in the early stages of the disease. […] The inventors therefore addressed the effects of IGF-1 […] and sixty-one days after the treatment was stopped.
First the inventors examined the ability of CsA to suppress IGF-1 activity in vitro. […] Then the inventors tested whether CsA treatment in vivo could also impair IGF-1 protective effect at early stages of the disease. A GTT was performed three weeks from the first STZ injection.

[6] = test system: T effector cell proliferation; experiment: in vitro suppression of T effector cell proliferation by IGF-1 treated Tregs; assay type: cell-based; details: antigen presenting cells and soluble anti-CD3; Treg:Teff 1:2 to 1:64

Insulin-like growth factor-1 [IGF-1]
tumors at necropsy [1]: never found tumors | expression of Foxp3 in CD4+ cells from mesenteric lymph nodes [2]: increased expression | protection from apoptosis [3]: partially protected from apoptosis | hIGF-1 in peripheral blood [4]: Elevated levels | increase of IGF-1 levels determined by ELISA [4]: 40 and 4 | in vitro expansion of CD25 negative subset [5]: no reproducible effect | ratio of CD4:Foxp3 positive cells in the spleen (STZ induced diabetes; IGF-1 treatment, P=0.004): decreased | Foxp3 mRNA in pancreatic CD4 positive cells (STZ induced diabetes; RT-PCR seven weeks after disease induction, beyond treatment): higher expression | cell mass and architecture of insulin-producing pancreatic islands (insulin staining) (STZ induced diabetes; day ninety-seven after first STZ injection): long-lasting protective effects | density of T regulatory cells in pancreas (Foxp3 staining) (STZ induced diabetes; day ninety-seven after first STZ injection, P=0.0159): higher density of T regulatory cells | glucose control in untreated (non-diabetic) mice (STZ induced diabetes; mice without STZ): no effect | glucose homeostasis (GTT AUC) after end of treatment (STZ induced diabetes; nice and sixty-one days after treatment was stopped, P37d=0.016, P89d=0.036): long-term improved glucose homeostasis | blood glucose in glucose tolerance test (GTT) (STZ induced diabetes; three weeks from first STZ injection, four weeks after pump implantation): lower glucose levels | ability of Treg cells to suppress T effector cell proliferation after treatment [6]: retain their ability to suppress T effector cell proliferation
